Laboratory results as given in ChEMBL document CHEMBL1201862, “PubChem BioAssay data set” (2004).
The source made the active and inactive calls.

What was measured:
Format in all cases: functional
[1] = target: T1, Heat shock factor protein 1 (Mus musculus, UniProt P38532); assay: enhancement of HSF1-driven luciferase signal – cell-based, NIH3T3, luminescence, dose retest, confirmation (AID 435004);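 further: stress induced by proteasome inhibitor MG132 added 30 min after compound; luciferase reporter driven by HSF1 response element in NIH3T3 cells; actives raise luminescence as potentiators of the MG132 stress response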
T1 sequence (P38532 whole entry): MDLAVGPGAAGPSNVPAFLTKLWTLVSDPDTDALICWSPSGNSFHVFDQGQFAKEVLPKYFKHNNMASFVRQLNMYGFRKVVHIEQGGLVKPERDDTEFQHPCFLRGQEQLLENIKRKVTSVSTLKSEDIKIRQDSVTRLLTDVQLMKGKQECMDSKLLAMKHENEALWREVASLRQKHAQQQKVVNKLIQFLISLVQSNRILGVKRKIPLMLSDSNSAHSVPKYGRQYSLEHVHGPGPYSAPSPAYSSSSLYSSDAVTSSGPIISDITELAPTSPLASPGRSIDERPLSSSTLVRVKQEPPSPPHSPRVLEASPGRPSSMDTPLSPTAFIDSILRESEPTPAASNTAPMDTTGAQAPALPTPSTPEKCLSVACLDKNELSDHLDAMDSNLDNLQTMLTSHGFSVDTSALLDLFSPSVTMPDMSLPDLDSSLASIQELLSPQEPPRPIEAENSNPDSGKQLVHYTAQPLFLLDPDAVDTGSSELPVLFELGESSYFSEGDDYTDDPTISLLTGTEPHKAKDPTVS

[2] = target: T2, Corticotropin-releasing factor receptor 2/Corticotropin-releasing factor-binding protein (Homo sapiens, UniProt P24387+Q13324); assay: Dose Response confirmation of uHTS hits for small molecule antagonists of the CRF-binding protein and CRF-R2 receptor complex.; conditions: read-out: IC50_Mean
T2 sequence (Q13324 whole entry): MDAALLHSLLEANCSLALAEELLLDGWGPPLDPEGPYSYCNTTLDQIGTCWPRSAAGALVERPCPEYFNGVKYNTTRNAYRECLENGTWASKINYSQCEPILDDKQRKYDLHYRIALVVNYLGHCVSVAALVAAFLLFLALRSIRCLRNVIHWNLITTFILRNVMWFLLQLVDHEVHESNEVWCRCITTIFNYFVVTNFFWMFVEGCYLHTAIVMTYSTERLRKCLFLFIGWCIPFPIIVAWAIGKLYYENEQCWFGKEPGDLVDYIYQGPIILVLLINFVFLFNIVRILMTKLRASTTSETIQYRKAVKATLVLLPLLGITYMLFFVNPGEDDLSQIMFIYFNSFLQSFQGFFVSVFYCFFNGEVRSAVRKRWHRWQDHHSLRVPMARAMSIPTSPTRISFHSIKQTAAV
T2 sequence (P24387 whole entry): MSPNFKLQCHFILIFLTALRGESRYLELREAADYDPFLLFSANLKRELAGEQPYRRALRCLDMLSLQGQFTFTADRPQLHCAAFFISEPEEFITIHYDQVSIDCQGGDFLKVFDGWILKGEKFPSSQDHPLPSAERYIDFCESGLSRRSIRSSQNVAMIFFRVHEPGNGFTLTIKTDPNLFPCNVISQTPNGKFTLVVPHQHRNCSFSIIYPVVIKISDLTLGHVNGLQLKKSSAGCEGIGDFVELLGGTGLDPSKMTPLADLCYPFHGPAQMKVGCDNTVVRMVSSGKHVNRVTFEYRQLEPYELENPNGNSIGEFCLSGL

[3] = target: T2, Corticotropin-releasing factor receptor 2/Corticotropin-releasing factor-binding protein; assay: activators of CRF receptor 2 with binding protein – uHTS hits, confirmation (AID 602473); conditions: read-out: EC50_Mean
Protein RecA = target: T3, Protein RecA (Mycobacterium tuberculosis, UniProt P9WHJ3); assay: Fluorescence Cell-Free Homogeneous Dose Retest to Identify Inhibitors of RecA-Intein Splicing Activity. [Related pubchem assays (depositor defined):AID2097, AID2223, AID489010, AID492950]
T3 sequence (P9WHJ3 whole entry): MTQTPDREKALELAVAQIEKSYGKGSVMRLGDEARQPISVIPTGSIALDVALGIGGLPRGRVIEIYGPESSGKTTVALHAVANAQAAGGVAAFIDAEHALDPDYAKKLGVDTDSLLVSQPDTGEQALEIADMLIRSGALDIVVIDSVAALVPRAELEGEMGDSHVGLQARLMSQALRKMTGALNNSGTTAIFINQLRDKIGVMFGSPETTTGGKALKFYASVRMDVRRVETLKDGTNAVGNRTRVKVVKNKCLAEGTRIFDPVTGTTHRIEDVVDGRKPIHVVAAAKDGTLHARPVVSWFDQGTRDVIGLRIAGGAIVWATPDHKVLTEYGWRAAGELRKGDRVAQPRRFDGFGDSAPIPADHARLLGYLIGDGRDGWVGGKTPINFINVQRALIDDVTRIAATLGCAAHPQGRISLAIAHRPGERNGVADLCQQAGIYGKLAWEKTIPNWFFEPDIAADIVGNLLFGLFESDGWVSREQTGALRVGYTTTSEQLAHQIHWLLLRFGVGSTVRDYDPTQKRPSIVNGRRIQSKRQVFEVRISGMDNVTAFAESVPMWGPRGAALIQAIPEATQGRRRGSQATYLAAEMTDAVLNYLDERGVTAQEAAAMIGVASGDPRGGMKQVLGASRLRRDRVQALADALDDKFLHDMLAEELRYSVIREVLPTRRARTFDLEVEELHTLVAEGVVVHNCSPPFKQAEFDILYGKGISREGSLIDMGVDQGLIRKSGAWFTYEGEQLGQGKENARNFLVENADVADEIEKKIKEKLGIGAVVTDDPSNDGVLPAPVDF

[4] = target: T4, Replicative DNA helicase DnaB (Mycobacterium tuberculosis, UniProt P9WMR3); assay: DnaB intein splicing inhibitors, dose response, biochemical, cell-free fluorescence (AID 449749)
T4 sequence (P9WMR3 whole entry): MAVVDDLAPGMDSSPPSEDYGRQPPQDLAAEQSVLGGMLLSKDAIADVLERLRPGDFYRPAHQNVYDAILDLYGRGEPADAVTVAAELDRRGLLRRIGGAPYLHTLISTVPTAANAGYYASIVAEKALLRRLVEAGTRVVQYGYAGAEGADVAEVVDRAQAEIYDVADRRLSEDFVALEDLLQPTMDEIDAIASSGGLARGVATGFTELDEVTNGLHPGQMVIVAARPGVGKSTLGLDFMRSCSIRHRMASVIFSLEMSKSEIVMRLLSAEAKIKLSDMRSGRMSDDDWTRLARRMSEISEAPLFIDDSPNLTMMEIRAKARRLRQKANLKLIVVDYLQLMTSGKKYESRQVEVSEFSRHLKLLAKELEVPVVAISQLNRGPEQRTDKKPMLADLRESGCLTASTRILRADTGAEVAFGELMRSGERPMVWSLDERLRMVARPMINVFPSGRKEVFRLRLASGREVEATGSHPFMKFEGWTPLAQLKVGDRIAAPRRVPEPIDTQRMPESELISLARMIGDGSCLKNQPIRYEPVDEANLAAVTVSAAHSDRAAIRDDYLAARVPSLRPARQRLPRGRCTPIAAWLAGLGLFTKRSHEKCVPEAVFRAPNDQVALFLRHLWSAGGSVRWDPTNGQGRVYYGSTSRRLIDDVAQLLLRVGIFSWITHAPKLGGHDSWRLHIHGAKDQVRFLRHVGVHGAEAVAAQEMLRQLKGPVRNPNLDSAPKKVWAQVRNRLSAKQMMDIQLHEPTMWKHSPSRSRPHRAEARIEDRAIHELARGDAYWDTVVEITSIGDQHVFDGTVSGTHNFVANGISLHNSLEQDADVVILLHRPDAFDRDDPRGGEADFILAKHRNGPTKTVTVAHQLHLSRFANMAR

INS1 = assay: INS-1E survival protection against cytokine death – cell-based, luminescence, retest, dose response (AID 449756); conditions: Rattus norvegicus;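 further: cell death triggered by IL-1 beta plus TNF-alpha plus IFN-gamma mixture; protective hits raise ATP signal compared with cytokine alone wells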

For `O=C(NC(=S)N1CCN(C/C=C/c2ccccc2)CC1)c1ccc(Cl)nc1`, the EC50 [1] was > 260 µM (inactive).

In the case of `CCOC(=O)NNC(=O)c1[nH]c2ccc(Br)cc2c1-c1ccccc1`, the IC50 [2] is reported as > 47.1 µM (inactive) and the EC50 [3] is reported as > 53 µM (inactive).

In the case of `Fc1ccc(C2NC(S)=NC3=C2N2CCC3CC2)cc1` (centres undefined), the EC50 [1] is reported as > 260 µM (inactive).

For `CC(NC(=O)CCCN1C(=O)c2ccccc2C1=O)c1ccc2c(c1)CCCC2` (centres undefined), the EC50 [1] was > 260 µM (inactive).

`O=c1c2cc(N3CCOCC3)ccc2[nH]c(=S)n1Cc1ccccn1` was tested, and the EC50 [1] was > 260 µM (inactive).

In the case of `COc1ccc(C(CC(=O)O)c2ccc3c(c2)OCO3)cc1` (centres undefined), the IC50 [2] is reported as > 47.1 µM (inactive) and the EC50 [3] is reported as > 53 µM (inactive).

`COc1cc(CC(=O)NCc2cccs2)cc(OC)c1OC` was tested, and the IC50 [2] was > 47.1 µM (inactive) and the EC50 [3] was > 53 µM (inactive).

In the case of `O=c1c2ccccc2nc2n1CCS2(=O)=O`, the EC50 (Protein RecA) is reported as 12.9 µM (active) and the AC50 [4] is reported as 37.2 µM (active).

`CC(C)c1n[nH]c2c1C(Cc1ccccc1)C(C#N)=C(N)O2` (centres undefined) was tested, and the EC50 (Protein RecA) was 8.67 µM (active) and the AC50 [4] was 38.7 µM (active).

`Cc1n[nH]c2c1C1(CCN(C(=O)OCc3ccccc3)CC1)C(C#N)=C(N)O2` was tested, and the EC50 (Protein RecA) was 1.59 µM (active) and the AC50 [4] was 13.5 µM (active).

In the case of `O=[N+]([O-])c1ccc(Oc2cccc(Br)c2)c2ccncc12`, the EC50 (Protein RecA) is reported as 1.17 µM (active) and the AC50 [4] is reported as > 380 µM (inactive).

For `Cc1ccccc1Cn1ccc(=NCc2ccccc2)cc1`, the AC50 (INS1) was > 260 µM (inactive).

For `Cn1cnc([N+](=O)[O-])c1Sc1nnc(-c2cccnc2)n1C`, the EC50 (Protein RecA) was 13.3 µM (active) and the AC50 [4] was 38.1 µM (active).

For `Cc1oc(-c2ccccc2Cl)nc1CN1C(=O)CN=C(c2ccccc2)c2ccccc21`, the EC50 [1] was > 260 µM (inactive).

In the case of `COc1cc(/C=C/C(=O)OCc2c(C)noc2C)ccc1OC(F)F`, the EC50 [1] is reported as > 260 µM (inactive).

In the case of `COc1ccc(CN(C)C(=O)c2ccc(NS(=O)(=O)c3ccc(F)cc3)cc2)c(OC)c1OC`, the AC50 (INS1) is reported as > 260 µM (inactive).

For `N=C(CN1CCCCC1)NS(=O)(=O)c1cc(Cl)cc(Cl)c1`, the IC50 [2] was > 47.1 µM (inactive) and the EC50 [3] was > 53 µM (inactive).

`COc1ccc(CCNc2oc(-c3ccccc3OC)nc2C#N)cc1` was tested, and the EC50 [1] was > 260 µM (inactive).

`CCOC(=O)C(NCc1ccccn1)(NC(=O)c1cccnc1)C(F)(F)F` (centres undefined) was tested, and the IC50 [2] was > 47.1 µM (inactive) and the EC50 [3] was > 53 µM (inactive).
